Where two headings read alike, the source gives them in different places.
Molecular target: T1, Acyl-CoA : cholesterol acyltransferase (ACAT) (Rattus norvegicus, UniProt Q7TQM4)
T1 construct: from the mucosal microsome fraction of the small intestine of male, 6-week old Sprague-Dawley rats; from tissue; host or cells: mucosal microsome fraction of the small intestine of male 6-week old Sprague-Dawley rats, fasted for 20 hours
T1 sequence (Q7TQM4 1-524): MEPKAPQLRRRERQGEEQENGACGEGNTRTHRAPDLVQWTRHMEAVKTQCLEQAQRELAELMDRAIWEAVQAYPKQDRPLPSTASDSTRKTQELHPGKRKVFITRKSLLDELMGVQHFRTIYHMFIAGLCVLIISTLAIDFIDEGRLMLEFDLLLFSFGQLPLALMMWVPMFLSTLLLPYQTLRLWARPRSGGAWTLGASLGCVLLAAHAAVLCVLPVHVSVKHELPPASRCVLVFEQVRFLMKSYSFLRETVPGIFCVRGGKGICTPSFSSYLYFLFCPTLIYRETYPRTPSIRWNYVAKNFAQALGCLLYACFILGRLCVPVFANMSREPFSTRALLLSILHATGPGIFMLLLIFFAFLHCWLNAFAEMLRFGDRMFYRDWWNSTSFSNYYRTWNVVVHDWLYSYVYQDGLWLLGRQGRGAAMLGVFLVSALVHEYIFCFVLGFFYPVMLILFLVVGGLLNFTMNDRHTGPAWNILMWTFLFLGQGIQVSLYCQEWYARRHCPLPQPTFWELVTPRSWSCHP
Experiment: Acyl-CoA : cholesterol acyltransferase (ACAT) inhibitory activity: production of labeled cholesterol ester from [1-^14 C] oleoyl-CoA and endogenous cholesterol
Type: biochemical
Details: for inhibition at 1 µM: 10^-6 M test compound
Experimental: 1. Acyl-CoA : cholesterol acyltransferase (ACAT) inhibitory activity.
The enzyme ACAT was prepared by the method of Heider et al. described in Journal of Lipid Research, Vol. 24, page 1127 (1982), from the mucosal microsome fraction of the small intestine of male, 6-week old Sprague-Dawley rats which had been fasted for 20 hours.
ACAT activity was calculated by the method of Helgerud et al. described in Journal of Lipid Research, Vol. 22, page 271 (1981), namely, by measuring the amount of the labeled cholesterol ester produced from [1-^14 C] oleoyl-CoA and endogenous cholesterol.
Inhibition rates (%) of the production of the labeled cholesterol ester wherein 10^-6 M-10^-8 M of test compounds were added are shown as an index of ACAT inhibitory activity in Table 1.

Row | inhibition at 1 µM (read-out: ACAT Inhibition Rate) | Compound | further results
1 | 88.3% | O=C(Nc1ccc(F)cc1F)Nc1cnc2ccc(Cl)cc2c1-c1ccccc1 [Example 1, 6-chloro-3-[3-(2,4-difluorophenyl)ureido]-4-phenylquinoline] | –
2 | 96.9% | Cc1ccc2ncc(NC(=O)Nc3ccc(F)cc3F)c(-c3ccccc3C)c2c1 [Example 31, 3-[3-(2,4-Difluorophenyl)ureido]-6-methyl-4-(2-methylphenyl)quinoline] | –
3 | 97.3% | Cc1cc(C)c2ncc(NC(=O)Nc3c(F)cc(F)cc3F)c(-c3ccccc3Cl)c2c1 [Example 62, 4-(2-chlorophenyl)-6,8-dimethyl-3-[3-(2,4,6-trifluorophenyl)ureido]quinoline] | –
4 | 69.7% | COc1cc(NC(=O)Nc2cnc3c(C)cc(C)cc3c2-c2ccccc2Cl)cc(OC)c1OC [Example 64, 4-(2-chlorophenyl)-6,8-dimethyl-3-[3-(3,4,5-trimethoxyphenyl)ureido]-quinoline] | –
5 | 90.1% | O=C(Nc1ccc(F)cc1F)Nc1cnc2ccc(C(F)(F)F)cc2c1-c1ccccc1 [Example 17, 3-[3-(2,4-Difluorophenyl)ureido]-4-phenyl-6-trifluoromethylquinoline] | –
6 | 97.9% | Cc1cc(C)c2ncc(NC(=O)Nc3c(C)cccc3C)c(-c3ccccc3Cl)c2c1 [Example 70, 4-(2-Chlorophenyl)-6,8-dimethyl-3-[3-(2,6-dimethyl-phenyl)ureido]quinoline] | –
7 | 98.2% | COc1ccccc1-c1c(NC(=O)Nc2ccc(F)cc2F)cnc2ccc(Cl)cc12 [Example 29] | –
8 | 88.5% | O=C(Nc1ccc(F)cc1F)Nc1cnc2ccc(Cl)cc2c1-c1cccc(Cl)c1 [Example 24, 6-Chloro-4-(3-chlorophenyl)-3-[3-(2,4-difluorophenyl)ureido]quinoline] | –
9 | 98.5% | Cc1cc(C)c2ncc(NC(=O)Nc3ccc(F)cc3F)c(-c3ccccc3C)c2c1 [Example 39, 3-[3-(2,4-Difluorophenyl)ureido]-6,8-dimethyl-4-(2-methylphenyl)quinoline] | inhibition at 0.01 µM (10^-8 M test compound, read-out: ACAT Inhibition Rate): 43.3%
10 | 85.9% | COc1ccc2ncc(NC(=O)Nc3ccc(F)cc3F)c(-c3ccccc3)c2c1 [Example 18, 3-[3-(2,4-Difluorophenyl)ureido]-6-methoxy-4-phenylquinoline] | –
11 | 84.5% | Cc1ccc2ncc(NC(=O)Nc3ccc(F)cc3F)c(-c3ccccc3)c2c1 [Example 13, 3-[3-(2,4-Difluorophenyl)ureido]-6-methyl-4-phenylquinoline] | –
12 | 54.5% | O=C(Nc1ccc(Cl)cc1)Nc1cnc2ccc(Cl)cc2c1-c1ccccc1 [Compound B, 6-chloro-3-[3-(4-chlorophenyl)ureido]-4-phenylquinoline, reference compound] | ACAT inhibitory activity (in words): excellent ACAT inhibitory activities; ACAT inhibitory activity (in words) (listed as compound B): strong ACAT inhibitory activity
13 | 75% | O=C(Nc1ccccc1F)Nc1cnc2ccc(Cl)cc2c1-c1ccccc1 [Example 4, 6-Chloro-3-[3-(2-fluorophenyl)ureido]-4-phenylquinoline] | –
14 | 80.7% | O=C(Nc1ccc(F)cc1F)Nc1cnc2ccc(OC(F)F)cc2c1-c1ccccc1 [Example 54, 6-Difluoromethoxy-3-[3-(2,4-difluorophenyl)ureido]-4 4-phenylquinoline] | –
15 | 90.1% | CCc1ccc2ncc(NC(=O)Nc3ccc(F)cc3F)c(-c3ccccc3)c2c1 [Example 14, 3-[3-(2,4-Difluorophenyl)ureido]-6-ethyl-4-phenylquinoline] | –
16 | 97.3% | Cc1cc(C)c2ncc(NC(=O)Nc3ccc([N+](=O)[O-])cc3)c(-c3ccccc3Cl)c2c1 [Example 72, 4-(2-Chlorophenyl)-3-[3-(4-nitrophenyl)ureido]-6,8-dimethylquinoline] | –

Row | Compound | inhibition at 1 µM (read-out: ACAT Inhibition Rate) | further results
17 | CC(=O)Oc1c(C)cc(NC(=O)Nc2cnc3c(C)cc(C)cc3c2-c2ccccc2Cl)c(C)c1C [Example 78, 3-[3-(4-Acetoxy-2,3,5-trimethylphenyl)ureido]-4-(2-chlorophenyl)-6,8-dimethylquinoline] | 98.2% | –
